{"source": "patent US5395947A", "about": "“Platinum(II) complex and processes for preparing the same” (Sunkyong Industries, Ltd., priority 1991, dated 1995)", "key": {"[1]": {"test_system": "murine leukemia L1210", "test": "Antitumor activity test on murine leukemia L1210 in vivo", "parameters": "species or system male BDF1 mice", "settings": "days 1, 5, 9", "outline": "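Intraperitoneal L1210 model: 1×10^6 cells inoculated i.p. into 6-week-old male BDF1 mice (21±3 g) on day 0, seven per group. Compounds in 0.5% CMC given i.p. on days 1, 5 and 9; vehicle-only controls. T/C % from mean survival time of treated over control.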"}, "[2]": {"test": "Test for water solubility", "format": "physicochemical", "settings": "water", "from_the_text": "3. Test for water solubility\nA standard plot of UV absorbance(220 nm) vs. concentration was made; and employed to determine water-solubility.\nThe mixture was then passed through a 0.45 micron disposable membrane filter before dilution and UV measurement."}, "[3]": {"test_system": "murine leukemia L1210 cells", "test": "Growth inhibition test on cultured murine leukemia L1210 cells", "format": "cell-based", "settings": "48 hours, 37° C., Trypan blue viability", "outline": "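L1210 cells (1×10^5) exposed to graded compound concentrations in RPMI 1640 with 10% fetal calf serum, 37° C, 5% CO2, 48 h. Viability by 0.17% Trypan blue staining, relative to untreated control cells.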"}, "[4]": {"test_system": "ICR mice", "test": "Acute toxicity test", "format": "in vivo", "parameters": "Lethality: unit not given here", "settings": "for Lethality: 10080 min", "description": "7-week-old ICR mice(male: 34±2 g; female: 31±2 g) were fed with solid food and water under the condition of 23±1° C. temperature and 65±5% humidity before the test.\nEach treatment group consisted of 6 mice. The test compounds were administered intraperitoneally.\nFor 7 days after the administration, the appearance and the fate of the tested animals were recorded. The dead animals were subjected to autopsy and their visible pathological changes were observed. Their viscerals were stored in 10% formalin solution."}}}
{"smiles": "CC1(C)OC2C[NH2+][Pt-2]3([NH2+]CC2O1)[O]C(=O)C1(CCC1)C(=O)[O]3", "note": "[Example 26, cis-cyclobutane-1,1-dicarboxylato[(4R,5R)-4,5-bis(aminomethyl)-2,2-dimethyl-1,3-dioxolane]platinum(II)]", "values": [{"measurement": "T/C (%)", "setting": "[1]; 6.2 mg/kg i.p.", "value": 124, "unit": "%"}, {"measurement": "T/C (%)", "setting": "[1]; 12.5 mg/kg i.p.", "value": 170, "unit": "%"}, {"measurement": "T/C (%)", "setting": "[1]; 25 mg/kg i.p.", "value": 217, "unit": "%"}, {"measurement": "T/C (%)", "setting": "[1]; 50 mg/kg i.p.", "value": 283, "unit": "%"}, {"measurement": "T/C (%)", "setting": "[1]; 100 mg/kg i.p.", "value": 317, "unit": "%"}, {"measurement": "Solubility in water", "setting": "[2]", "value": 2000, "unit": "µg/mL"}, {"measurement": "IC50 (concentration required for 50% inhibition of growth)", "setting": "[3]", "value": 0.65, "unit": "µg/mL"}, {"measurement": "Number of dead mice for 7 days", "setting": "[4]; female, 160 mg/kg i.p.", "value": "0/6"}, {"measurement": "Number of dead mice, 1st day", "setting": "[4]; female, 160 mg/kg i.p.", "value": "0/6"}, {"measurement": "Number of dead mice for 7 days", "setting": "[4]; female, 208 mg/kg i.p.", "value": "0/6"}, {"measurement": "Number of dead mice, 1st day", "setting": "[4]; female, 208 mg/kg i.p.", "value": "0/6"}, {"measurement": "Number of dead mice for 7 days", "setting": "[4]; female, 270 mg/kg i.p.", "value": "1/6"}, {"measurement": "Number of dead mice, 1st day", "setting": "[4]; female, 270 mg/kg i.p.", "value": "0/6"}, {"measurement": "Number of dead mice, 5th day", "setting": "[4]; female, 270 mg/kg i.p.", "value": "1/6"}, {"measurement": "Lethality", "setting": "[4]; female, 270 mg/kg i.p.", "value": 16.7}, {"measurement": "Number of dead mice for 7 days", "setting": "[4]; female, 352 mg/kg i.p.", "value": "4/6"}, {"measurement": "Number of dead mice, 1st day", "setting": "[4]; female, 352 mg/kg i.p.", "value": "0/6"}, {"measurement": "Number of dead mice, 3rd day", "setting": "[4]; female, 352 mg/kg i.p.", "value": "2/6"}, {"measurement": "Number of dead mice, 4th day", "setting": "[4]; female, 352 mg/kg i.p.", "value": "2/4"}, {"measurement": "Lethality", "setting": "[4]; female, 352 mg/kg i.p.", "value": 66.7}, {"measurement": "Number of dead mice for 7 days", "setting": "[4]; female, 457 mg/kg i.p.", "value": "6/6"}, {"measurement": "Number of dead mice, 1st day", "setting": "[4]; female, 457 mg/kg i.p.", "value": "0/6"}, {"measurement": "Number of dead mice, 2nd day", "setting": "[4]; female, 457 mg/kg i.p.", "value": "4/6"}, {"measurement": "Number of dead mice, 3rd day", "setting": "[4]; female, 457 mg/kg i.p.", "value": "2/2"}, {"measurement": "Lethality", "setting": "[4]; female, 457 mg/kg i.p.", "value": 100.0}, {"measurement": "Number of dead mice for 7 days", "setting": "[4]; male, 160 mg/kg i.p.", "value": "0/6"}, {"measurement": "Number of dead mice, 1st day", "setting": "[4]; male, 160 mg/kg i.p.", "value": "0/6"}, {"measurement": "Number of dead mice for 7 days", "setting": "[4]; male, 208 mg/kg i.p.", "value": "1/6"}, {"measurement": "Number of dead mice, 1st day", "setting": "[4]; male, 208 mg/kg i.p.", "value": "0/6"}, {"measurement": "Number of dead mice, 3rd day", "setting": "[4]; male, 208 mg/kg i.p.", "value": "1/6"}, {"measurement": "Lethality", "setting": "[4]; male, 208 mg/kg i.p.", "value": 16.7}, {"measurement": "Number of dead mice for 7 days", "setting": "[4]; male, 270 mg/kg i.p.", "value": "2/6"}, {"measurement": "Number of dead mice, 1st day", "setting": "[4]; male, 270 mg/kg i.p.", "value": "0/6"}, {"measurement": "Number of dead mice, 4th day", "setting": "[4]; male, 270 mg/kg i.p.", "value": "2/6"}, {"measurement": "Lethality", "setting": "[4]; male, 270 mg/kg i.p.", "value": 33.3}, {"measurement": "Number of dead mice for 7 days", "setting": "[4]; male, 352 mg/kg i.p.", "value": "4/6"}, {"measurement": "Number of dead mice, 1st day", "setting": "[4]; male, 352 mg/kg i.p.", "value": "0/6"}, {"measurement": "Number of dead mice, 2nd day", "setting": "[4]; male, 352 mg/kg i.p.", "value": "1/6"}, {"measurement": "Number of dead mice, 3rd day", "setting": "[4]; male, 352 mg/kg i.p.", "value": "3/5"}, {"measurement": "Lethality", "setting": "[4]; male, 352 mg/kg i.p.", "value": 66.7}, {"measurement": "Number of dead mice for 7 days", "setting": "[4]; male, 457 mg/kg i.p.", "value": "6/6"}, {"measurement": "Number of dead mice, 1st day", "setting": "[4]; male, 457 mg/kg i.p.", "value": "0/6"}, {"measurement": "Number of dead mice, 2nd day", "setting": "[4]; male, 457 mg/kg i.p.", "value": "2/6"}, {"measurement": "Number of dead mice, 3rd day", "setting": "[4]; male, 457 mg/kg i.p.", "value": "4/4"}, {"measurement": "Lethality", "setting": "[4]; male, 457 mg/kg i.p.", "value": 100.0}]}
